Laboratory results reported in patent publication US11542273B2, “Amide compound having bet proteolysis-inducing action and medicinal application thereof” (MITSUBISHI TANABE PHARMA CORPORATION, priority 2018, dated 2023).

Legend:
[1] = test system: human Burkitt lymphoma Raji cell; assay: Cytotoxic action on cancer cells (WST-8, 96 hr); type: cell-based; settings: 96 hr culture
Procedure, shortened: (§1)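 Growth medium was 10% FBS/RPMI1640 throughout, with compound added after an overnight culture at 37° C. Survival was scored by WST-8 relative to untreated cells.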

[2] = test system: human T-cell leukemia Jurkat cells; assay: Cytotoxic action on cancer cells (WST-8, 96 hr); type: cell-based; settings: 96 hr culture
Procedure, shortened: as §1

[3] = test system: human acute myeloid leukemia MV-4-11 cell; assay: Cytotoxic action on cancer cells (WST-8, 96 hr); type: cell-based; settings: MV4-11, MV-4-11 cells, 96 hr culture
Procedure, shortened: as §1

[4] = test system: human bladder cancer 5637 cell; assay: Cytotoxic action on cancer cells (WST-8, 96 hr); type: cell-based; settings: 5637 cells, 96 hr culture
Procedure, shortened: as §1

[5] = test system: human breast cancer ZR-75-1 cell; assay: Cytotoxic action on cancer cells (WST-8, 96 hr); type: cell-based; settings: ZR-75-1 cells, 96 hr culture
Procedure, shortened: as §1

[6] = test system: human castration-resistant prostate cancer PC-3 cell; assay: Cytotoxic action on cancer cells (WST-8, 96 hr); type: cell-based; settings: PC-3 cells (printed P0-3 in table), 96 hr culture
Procedure, shortened: as §1

[7] = test system: human chronic myeloid leukemia K562 cell; assay: Cytotoxic action on cancer cells (WST-8, 96 hr); type: cell-based; settings: 96 hr culture
Procedure, shortened: as §1

[8] = test system: human colorectal cancer HCT116 cell; assay: Cytotoxic action on cancer cells (WST-8, 96 hr); type: cell-based; settings: HCT-116, 96 hr culture
Procedure, shortened: as §1

[9] = test system: human diffuse large B-cell lymphoma SU-DHL-6 cell; assay: Cytotoxic action on cancer cells (WST-8, 96 hr); type: cell-based; settings: SU-DHL-6 cells, 96 hr culture
Procedure, shortened: as §1

[10] = test system: human gastric cancer SNU-16 cell; assay: Cytotoxic action on cancer cells (WST-8, 96 hr); type: cell-based; settings: SNU-16 cells, 96 hr culture
Procedure, shortened: as §1

[11] = test system: human glioma U-87 MG cell; assay: Cytotoxic action on cancer cells (WST-8, 96 hr); type: cell-based; settings: U-87 MG cells, 96 hr culture
Procedure, shortened: as §1

[12] = test system: human large cell lung cancer NCI-H460 cell; assay: Cytotoxic action on cancer cells (WST-8, 96 hr); type: cell-based; settings: 96 hr culture
Procedure, shortened: as §1

[13] = test system: human liver cancer Hep G2 cell; assay: Cytotoxic action on cancer cells (WST-8, 96 hr); type: cell-based; settings: HepG2, 96 hr culture
Procedure, shortened: as §1

[14] = test system: human multiple myeloma MM.1S cell; assay: Cytotoxic action on cancer cells (WST-8, 96 hr); type: cell-based; settings: MM1.S, MM.1S cells, 96 hr culture
Procedure, shortened: as §1

[15] = test system: human non-small cell lung cancer NCI-H1975 cell; assay: Cytotoxic action on cancer cells (WST-8, 96 hr); type: cell-based; settings: 96 hr culture
Procedure, shortened: as §1

[16] = test system: human ovarian cancer A2780 cell; assay: Cytotoxic action on cancer cells (WST-8, 96 hr); type: cell-based; settings: 96 hr culture
Procedure, shortened: as §1

[17] = test system: human pancreatic cancer AsPC-1 cell; assay: Cytotoxic action on cancer cells (WST-8, 96 hr); type: cell-based; settings: ASPC1, AsPC-1 cells, 96 hr culture
Procedure, shortened: as §1

[18] = test system: human prostate cancer LNCaP cells; assay: Cytotoxic action on cancer cells (WST-8, 96 hr); type: cell-based; settings: Homo sapiens, LNCaP, 96 h, read-out: LNCaP cytotoxic activity: IC50
Procedure, shortened: as §1

[19] = test system: human small cell lung cancer NCI-H82 cell; assay: Cytotoxic action on cancer cells (WST-8, 96 hr); type: cell-based; settings: 96 hr culture
Procedure, shortened: as §1

[20] = test system: human triple negative breast cancer MDA-MB-231 cell; assay: Cytotoxic action on cancer cells (WST-8, 96 hr); type: cell-based; settings: MDA-MB-231 cells, 96 hr culture
Procedure, shortened: as §1

[21] = test system: human uterine sarcoma MES-SA cell; assay: Cytotoxic action on cancer cells (WST-8, 96 hr); type: cell-based; settings: 96 hr culture
Procedure, shortened: as §1

[22] = test system: human acute myeloid leukemia MV-4-11 cell transplanted mouse; assay: Antitumor effect in human acute myeloid leukemia MV-4-11 cell transplanted mouse; type: in vivo; settings: MV4-11, iv, 360 h, read-out: tumor growth inhibitory rate
Procedure: The in vivo antitumor effect of the compound of the present invention was studied using human acute myeloid leukemia MV-4-11 cell transplanted mouse. MV-4-11 cells were subcutaneously transplanted into the inguinal region of male, 6-week-old BALB/c nude mouse (5×10^6 cells/mouse). The compound of the present invention was administered into the tail vein on days 1, 5, 9, 13 from the time point when the assumed tumor volume determined from 1/2ab^2 (a is major axis and b is minor axis of tumor) reached about 100 mm^3 (day 1). The control group was administered with a solvent, 10% hydroxypropyl-β-cyclodextrin solution. On day 15, the tumor was isolated, the weight was measured, and the tumor growth inhibitory rate IR (%) was calculated by the following formula. tumor growth inhibitory rate IR (%)=(1−tumor weight of administration group/tumor weight of nonadministration control group)×100

| SMILES | IC50 [1] [nM] | IC50 [2] [nM] | IC50 [3] [nM] | IC50 [4] [nM] | IC50 [5] [nM] | IC50 [6] [nM] | IC50 [7] [nM] | IC50 [8] [nM] | IC50 [9] [nM] | IC50 [10] [nM] | IC50 [11] [nM] | IC50 [12] [nM] | IC50 [13] [nM] | IC50 [14] [nM] | IC50 [15] [nM] | IC50 [16] [nM] | IC50 [17] [nM] | IC50 [18] [nM] | IC50 [19] [nM] | IC50 [20] [nM] | also measured |
| --- | --- | --- | --- | --- | --- | --- | --- | --- | --- | --- | --- | --- | --- | --- | --- | --- | --- | --- | --- | --- | --- |
| COC(=O)C[C@@H]1N=C(c2ccc(-c3ccc(OCC(=O)N[C@H](C(=O)N4C[C@H](O)C[C@H]4C(=O)N[C@@H](C)c4ccc(-c5scnc5C)cc4)C(C)(C)C)c(C#N)c3)cc2)c2c(sc(C)c2C)-n2c(C)nnc21 [Example 9, methyl [(6S)-4-{3′-cyano-4′-[2-({(2S)-1-[(2S,4R)-4-hydroxy-2-({(1S)-1-[4-(4-methyl-1,3-thiazol-5-yl)phenyl]ethyl}carbamoyl)pyrrolidin-1-yl]-3,3-dimethyl-1-oxobutan-2-yl}amino)-2-oxoethoxy][1,1′-biphenyl]-4-yl}-2,3,9-trimethyl-6H-thieno[3,2-f][1,2,4]triazolo[4,3-a][1,4]diazepin-6-yl]acetate] | 1.9 | 1.2 | 0.015 | 0.45 | 0.96 | 1 | 2.2 | 4.7 | 0.57 | 3 | 9.1 | 24 | 33 | 0.14 | 3.7 | 0.16 | 30 | 0.16 | 15 | 5.7 | IC50 [21]: 2.6 nM; inhibition in vivo at 1 mg/kg [22]: 98.5%; inhibition in vivo at 5 mg/kg [22]: 98.4% |
| COC(=O)C[C@@H]1N=C(c2ccc(N3CC[C@@H](Oc4ccc5oc(C(=O)N[C@H](C(=O)N6C[C@H](O)C[C@H]6C(=O)N[C@@H](C)c6ccc(-c7scnc7C)cc6)C(C)(C)C)cc5c4)C3)cc2)c2c(sc(C)c2C)-n2c(C)nnc21 [Example 142, methyl [(6S)-4-{4-[(3R)-3-{[2-({(2S)-1-[(2S,4R)-4-hydroxy-2-({(1S)-1-[4-(4-methyl-1,3-thiazol-5-yl)phenyl]ethyl}carbamoyl)pyrrolidin-1-yl]-3,3-dimethyl-1-oxobutan-2-yl}carbamoyl)-1-benzofuran-5-yl]oxy}pyrrolidin-1-yl]phenyl}-2,3,9-trimethyl-6H-thieno[3,2-f][1,2,4]triazolo[4,3-a][1,4]diazepin-6-yl]acetate] | 0.71 | 0.36 | 0.041 | 0.34 | 0.49 | 0.34 | 2.1 | 3.9 | 0.93 | 0.55 | 4 | 11 | 7.4 | 0.23 | 1.8 | 0.27 | 5.7 | 0.3 | 5.9 | 0.98 | IC50 [21]: 1.6 nM; inhibition in vivo at 3 mg/kg [22]: 97.4% |
| COC(=O)C[C@@H]1N=C(c2ccc(-c3ccc(C(=O)N[C@H](C(=O)N4C[C@H](O)C[C@H]4C(=O)N[C@@H](C)c4ccc(-c5scnc5C)cc4)C(C)(C)C)c(Cl)c3)cc2)c2c(sc(C)c2C)-n2c(C)nnc21 [Example 157, methyl {(6S)-4-[3′-chloro-4′-({(2S)-1-[(2S,4R)-4-hydroxy-2-({(1S)-1-[4-(4-methyl-1,3-thiazol-5-yl)phenyl]ethyl}carbamoyl)pyrrolidin-1-yl]-3,3-dimethyl-1-oxobutan-2-yl}carbamoyl)[1,1′-biphenyl]-4-yl]-2,3,9-trimethyl-6H-thieno[3,2-f][1,2,4]triazolo[4,3-a][1,4]diazepin-6-yl}acetate] | 0.59 | 0.46 | 0.029 | 0.33 | 2 | 0.41 | 1.2 | 4.5 | 0.39 | 1.2 | 18 | 23 | 12 | 0.081 | 2.2 | 0.15 | 23 | 0.4 | 4.5 | 1.8 | IC50 [21]: 1.7 nM; inhibition in vivo at 1 mg/kg [22]: 95.5%; inhibition in vivo at 3 mg/kg [22]: 98.2% |
